Measured values: EP2465840A1, “Terpene ether” (CABB GmbH, priority 2010, dated 2012)
“Also recorded” adds a separate entry of the source.

Key:
Type in all cases: physicochemical
[1] = Brookfield viscosity (25°C) of cleaning formulation 24 h after addition of terpene ether
Procedure: Im Rahmen der vorliegenden Erfindung wird die Brookfield-Viskosität einer wässrigen Zusammensetzung vorzugsweise mittels einem RTV Brookfield-Viskosimeter bei 25°C ermittelt, besonders bevorzugt mit einer Spindel # 3 oder # 4.
Die in Tabelle 1 angegebene Reinigungsformulierung wurde untersucht. Tabelle 1: Reinigungsformulierung (WAS 15 %)
Zu dieser Formulierung wurden NP 1 oder NP 27 gegeben. Die gemessenen Brookfield-Viskositätswerte nach 24 Stunden werden in Tabelle 2 und 3 zusammengefasst. Tabelle 2: Brookfield-Viskosität (25°C)
Zu dieser Formulierung wurden NP 1 oder NP 27 sowie danach Natriumchlorid gegeben. Die gemessenen Brookfield-Viskositätswerte nach 24 Stunden werden in den folgenden Tabellen zusammengefasst. Tabelle 13: Brookfield-Viskosität (25°C)

[2] = Appearance of cleaning formulation after 24 h
[3] = Foam height and foam stability of formulation; conditions: for h1: Schaumhöhe 5 Minuten nach dem Mischen; for h1 / h0: Lösung mit 0,5 % WAS; for h0: Schaumhöhe eine Minute nach dem Mischen; for Stabilität: Schaumstabilität (h1/h0)*100
Procedure: Die Schaumhöhe der Formulierungen wurde nach folgender Methode ermittelt: In einem 400 ml Becher wurden 100 g einer wässrigen Lösung mit 0,5 % WAS hergestellt. Für eine Minute wurde die Lösung bei […] runden […] wurde die […] Minute […]0) und 5 […]. Die Schaumstabilität in % ergibt sich dann über (h1/h0)*100.

[4] = pH of cleaning formulation after addition of terpene ether
[5] = Visual evaluation of foam (foam appearance, bubble size); design: key to Blasengröße nach 1 min. / Blasengröße nach 5 min.: klein (1); mittel (2); mittel-groß (3); groß (4); sehr groß (5); key to Aussehen des Schaums nach 1 min. / Aussehen des Schaums nach 5 min.: verschwindend (1); locker (2); mittelkompakt (3); sehr kompakt (4)
Procedure: Die Qualität des Schaums wurde visuell nach der folgenden Methode festgestellt: 100 g der Lösung mit 0,5 % WAS wurden in einen 250 ml Glaszylinder mit Schraubverschluss und einem Innendurchmesser von 35 mm überführt. Der Zylinder wurde 10 mal gedreht und die Blasengröße und die Schaumkompaktheit wurden nach einer Minute nach dem Mischen und nach 5 Minuten ermittelt. Dabei erfolgte die Beurteilung auf der Grundlage der folgenden beschreibenden Parameter:
Aussehen des Schaums: verschwindend (1), locker (2), mittelkompakt (3), sehr kompakt (4)
Blasengröße: klein (1), mittel (2), mittel-groß (3), groß (4), sehr groß (5) Tabelle 4: […]

[6] = Reinigungsformulierung enthaltend Coco Glucosid, +0,5 %
[7] = Reinigungsformulierung enthaltend Coco Glucosid, +1 %
[8] = Reinigungsformulierung enthaltend Coco Glucosid, +5 %
[9] = Reinigungsformulierung enthaltend Dinatriumlaurylsuccinat (wässrig), +0,5 %, nach 24 Stunden
[10] = Reinigungsformulierung enthaltend Dinatriumlaurylsuccinat (wässrig), +1 %, nach 24 Stunden
[11] = Reinigungsformulierung enthaltend Dinatriumlaurylsuccinat (wässrig), +5 %, nach 24 Stunden
[12] = Reinigungsformulierung enthaltend Natriumlaurylethersulfat, Dinatriumcocoamphodiacetat, 0,5 % NaCl, +0,5 %, nach 24 Stunden
[13] = Reinigungsformulierung enthaltend Natriumlaurylethersulfat, Dinatriumcocoamphodiacetat, 0,5 % NaCl, +0,25 %, nach 24 Stunden
[14] = Reinigungsformulierung enthaltend Natriumlaurylethersulfat, Dinatriumcocoamphodiacetat, 0,5 % NaCl, +1 %, nach 24 Stunden
[15] = Reinigungsformulierung enthaltend Natriumlaurylethersulfat, Dinatriumcocoamphodiacetat, 0,5 % NaCl, +2 %, nach 24 Stunden
[16] = Reinigungsformulierung enthaltend Natriumlaurylethersulfat, Dinatriumcocoamphodiacetat, 1 % NaCl, +0,5 %, nach 24 Stunden
[17] = Reinigungsformulierung enthaltend Natriumlaurylethersulfat, Dinatriumcocoamphodiacetat, 1 % NaCl, +0,25 %, nach 24 Stunden
[18] = Reinigungsformulierung enthaltend Natriumlaurylethersulfat, Dinatriumcocoamphodiacetat, 1 % NaCl, +1 %, nach 24 Stunden
[19] = Reinigungsformulierung enthaltend Natriumlaurylethersulfat, Dinatriumcocoamphodiacetat, 1 % NaCl, +2 %, nach 24 Stunden
[20] = Reinigungsformulierung enthaltend Natriumlaurylethersulfat, Dinatriumcocoamphodiacetat, +0,5 %, nach 24 Stunden
[21] = Reinigungsformulierung enthaltend Natriumlaurylethersulfat, Dinatriumcocoamphodiacetat, +0,25 %, nach 24 Stunden
[22] = Reinigungsformulierung enthaltend Natriumlaurylethersulfat, Dinatriumcocoamphodiacetat, +1 %, nach 24 Stunden
[23] = Reinigungsformulierung enthaltend Natriumlaurylethersulfat, Dinatriumcocoamphodiacetat, +2 %, nach 24 Stunden
[24] = Reinigungsformulierung enthaltend Dinatriumlaurylsuccinat (wässrig), +0,5 %
[25] = Reinigungsformulierung enthaltend Dinatriumlaurylsuccinat (wässrig), +1 %
[26] = Reinigungsformulierung enthaltend Dinatriumlaurylsuccinat (wässrig), +5 %
[27] = Reinigungsformulierung enthaltend Coco Glucosid, 0,5 %
[28] = Reinigungsformulierung enthaltend Coco Glucosid, 1 %
[29] = Reinigungsformulierung enthaltend Coco Glucosid, 5 %
[30] = Reinigungsformulierung enthaltend Dinatriumlaurylsuccinat (wässrig), 0,5 %
[31] = Reinigungsformulierung enthaltend Dinatriumlaurylsuccinat (wässrig), 1 %
[32] = Reinigungsformulierung enthaltend Dinatriumlaurylsuccinat (wässrig), 5 %

CC1(C)C2CCC1(C)C(OCC(O)CO)C2 (stereo not drawn) [NP 1, Glycerin-isobornylether]
BF-Viskosität (2,5 rpm) [1, 6]: 18200 mPas
BF-Viskosität (5 rpm) [1, 6]: 17800 mPas
BF-Viskosität (2,5 rpm) [1, 7]: 3400 mPas
BF-Viskosität (5 rpm) [1, 7]: 3300 mPas
BF-Viskosität (2,5 rpm) [1, 8]: 1600 mPas
BF-Viskosität (5 rpm) [1, 8]: 1100 mPas
BF-Viskosität (2,5 rpm) [1, 9]: 6200 mPas
BF-Viskosität (5 rpm) [1, 9]: 6100 mPas
BF-Viskosität (2,5 rpm) [1, 10]: 17600 mPas
BF-Viskosität (5 rpm) [1, 10]: 17200 mPas
BF-Viskosität (2,5 rpm) [1, 11]: 3800 mPas
BF-Viskosität (5 rpm) [1, 11]: 1800 mPas
BF-Viskosität (2,5 rpm) [1, 12]: 22800 mPas
BF-Viskosität (5 rpm) [1, 12]: 21000 mPas
BF-Viskosität (2,5 rpm) [1, 13]: 17200 mPas
BF-Viskosität (5 rpm) [1, 13]: 16100 mPas
BF-Viskosität (2,5 rpm) [1, 14]: 32000 mPas
BF-Viskosität (5 rpm) [1, 14]: 29600 mPas
BF-Viskosität (2,5 rpm) [1, 15]: 12800 mPas
BF-Viskosität (5 rpm) [1, 15]: 12600 mPas
BF-Viskosität (2,5 rpm) [1, 16]: 37600 mPas
BF-Viskosität (5 rpm) [1, 16]: 33200 mPas
BF-Viskosität (2,5 rpm) [1, 17]: 31200 mPas
BF-Viskosität (5 rpm) [1, 17]: 27600 mPas
BF-Viskosität (2,5 rpm) [1, 18]: 38400 mPas
BF-Viskosität (5 rpm) [1, 18]: 36000 mPas
BF-Viskosität (2,5 rpm) [1, 19]: 4400 mPas
BF-Viskosität (5 rpm) [1, 19]: 4200 mPas
BF-Viskosität (2,5 rpm) [1, 20]: 10400 mPas
BF-Viskosität (5 rpm) [1, 20]: 10200 mPas
BF-Viskosität (2,5 rpm) [1, 21]: 7200 mPas
BF-Viskosität (5 rpm) [1, 21]: 7200 mPas
BF-Viskosität (2,5 rpm) [1, 22]: 22800 mPas
BF-Viskosität (5 rpm) [1, 22]: 22000 mPas
BF-Viskosität (2,5 rpm) [1, 23]: 18400 mPas
BF-Viskosität (5 rpm) [1, 23]: 18200 mPas
Aussehen nach 24 h [2, 6]: transparent; also recorded: Gel-flüssig
Aussehen nach 24 h [2, 7]: transparent; also recorded: flüssig
Aussehen nach 24 h [2, 8]: weiß and flüssig
Aussehen nach 24 h [2, 24]: transparent; also recorded: flüssig
Aussehen nach 24 h [2, 25]: transparent; also recorded: Gel-flüssig
Aussehen nach 24 h [2, 26]: weiß and flüssig
Aussehen nach 24 h ([2]; Reinigungsformulierung enthaltend Natriumlaurylethersulfat, Dinatriumcocoamphodiacetat, 0,5 % NaCl, +0,5 %): transparent Gel-flüssig
Aussehen nach 24 h ([2]; Reinigungsformulierung enthaltend Natriumlaurylethersulfat, Dinatriumcocoamphodiacetat, 0,5 % NaCl, +0,25 %): transparent Gel-flüssig
Aussehen nach 24 h ([2]; Reinigungsformulierung enthaltend Natriumlaurylethersulfat, Dinatriumcocoamphodiacetat, 0,5 % NaCl, +1 %): transparent Gel
Aussehen nach 24 h ([2]; Reinigungsformulierung enthaltend Natriumlaurylethersulfat, Dinatriumcocoamphodiacetat, 0,5 % NaCl, +2 %): transparent flüssig
Aussehen nach 24 h ([2]; Reinigungsformulierung enthaltend Natriumlaurylethersulfat, Dinatriumcocoamphodiacetat, 1 % NaCl, +0,5 %): transparent Gel
Aussehen nach 24 h ([2]; Reinigungsformulierung enthaltend Natriumlaurylethersulfat, Dinatriumcocoamphodiacetat, 1 % NaCl, +0,25 %): transparent Gel
Aussehen nach 24 h ([2]; Reinigungsformulierung enthaltend Natriumlaurylethersulfat, Dinatriumcocoamphodiacetat, 1 % NaCl, +1 %): transparent Gel
Aussehen nach 24 h ([2]; Reinigungsformulierung enthaltend Natriumlaurylethersulfat, Dinatriumcocoamphodiacetat, 1 % NaCl, +2 %): transparent flüssig
Aussehen nach 24 h ([2]; Reinigungsformulierung enthaltend Natriumlaurylethersulfat, Dinatriumcocoamphodiacetat, +0,5 %): transparent flüssig
Aussehen nach 24 h ([2]; Reinigungsformulierung enthaltend Natriumlaurylethersulfat, Dinatriumcocoamphodiacetat, +0,25 %): transparent flüssig
Aussehen nach 24 h ([2]; Reinigungsformulierung enthaltend Natriumlaurylethersulfat, Dinatriumcocoamphodiacetat, +1 %): transparent Gel-flüssig
Aussehen nach 24 h ([2]; Reinigungsformulierung enthaltend Natriumlaurylethersulfat, Dinatriumcocoamphodiacetat, +2 %): transparent Gel-flüssig
h1 [3, 27]: 200 mm
h0 [3, 27]: 230 mm
Stabilität [3, 27]: 87%
h1 [3, 28]: 210 mm
h0 [3, 28]: 235 mm
Stabilität [3, 28]: 89%
h1 [3, 29]: 230 mm
h0 [3, 29]: 260 mm
Stabilität [3, 29]: 88%
h1 [3, 30]: 220 mm
h0 [3, 30]: 245 mm
Stabilität [3, 30]: 90%
h1 [3, 31]: 225 mm
h0 [3, 31]: 250 mm
Stabilität [3, 31]: 90%
h1 [3, 32]: 225 mm
h0 [3, 32]: 250 mm
Stabilität [3, 32]: 90%
pH [4, 6]: 6
pH [4, 7]: 6
pH [4, 8]: 6
pH [4, 24]: 6,3
pH [4, 25]: 6,3
pH [4, 26]: 6,3
Aussehen des Schaums nach 1 min. [5, 6]: 3
Aussehen des Schaums nach 5 min. [5, 6]: 1
Blasengröße nach 1 min. [5, 6]: 3
Blasengröße nach 5 min. [5, 6]: 5
Aussehen des Schaums nach 1 min. [5, 7]: 3
Aussehen des Schaums nach 5 min. [5, 7]: 1
Blasengröße nach 1 min. [5, 7]: 3
Blasengröße nach 5 min. [5, 7]: 5
Aussehen des Schaums nach 1 min. [5, 8]: 3
Aussehen des Schaums nach 5 min. [5, 8]: 1
Blasengröße nach 1 min. [5, 8]: 3
Blasengröße nach 5 min. [5, 8]: 5
Aussehen des Schaums nach 1 min. [5, 24]: 3
Aussehen des Schaums nach 5 min. [5, 24]: 2
Blasengröße nach 1 min. [5, 24]: 3
Blasengröße nach 5 min. [5, 24]: 4
Aussehen des Schaums nach 1 min. [5, 25]: 3
Aussehen des Schaums nach 5 min. [5, 25]: 2
Blasengröße nach 1 min. [5, 25]: 3
Blasengröße nach 5 min. [5, 25]: 4
Aussehen des Schaums nach 1 min. [5, 26]: 3
Aussehen des Schaums nach 5 min. [5, 26]: 1
Blasengröße nach 1 min. [5, 26]: 4
Blasengröße nach 5 min. [5, 26]: 5
